Assay results published in patent US20240158446A1, “CYCLIC COMPOUND HAVING SELECTIVE INHIBITORY ACTION ON KRAS OVER HRAS AND NRAS” (CHUGAI SEIYAKU KABUSHIKI KAISHA, priority 2021, published 2024).

What was measured:
[1] = target: GDP-bound HRAS wild-type protein (Homo sapiens, UniProt P01112); experiment: Binding to HRAS by surface plasmon resonance (SPR), Single Cycle Kinetics; conditions: for HRAS/KRAS (ratio of KD value with respect to GDP-bound HRAS wild-type protein to KD value with respect to KRAS): SPR KD ratio HRAS/KRAS, class symbols; for HRAS/KRAS (ratio of KD value for HRAS to KD value for KRAS): SPR, GDP-bound HRAS wild-type protein vs GDP-bound KRAS wild-type protein
Chain of GDP-bound HRAS wild-type protein (P01112 whole entry): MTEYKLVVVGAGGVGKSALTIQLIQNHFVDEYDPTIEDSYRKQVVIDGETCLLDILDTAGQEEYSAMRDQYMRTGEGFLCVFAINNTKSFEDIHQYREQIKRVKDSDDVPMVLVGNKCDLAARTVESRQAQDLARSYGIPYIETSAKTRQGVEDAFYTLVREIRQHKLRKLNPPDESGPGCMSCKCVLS

[2] = target: GDP-bound NRAS wild-type protein (Homo sapiens, UniProt P01111); experiment: Binding to NRAS by surface plasmon resonance (SPR), Single Cycle Kinetics; conditions: for NRAS/KRAS (ratio of KD value with respect to GDP-bound NRAS wild-type protein to KD value with respect to KRAS): SPR KD ratio NRAS/KRAS, class symbols; for NRAS/KRAS (ratio of KD value for NRAS to KD value for KRAS): SPR, GDP-bound NRAS wild-type protein vs GDP-bound KRAS wild-type protein
Chain of GDP-bound NRAS wild-type protein (P01111 whole entry): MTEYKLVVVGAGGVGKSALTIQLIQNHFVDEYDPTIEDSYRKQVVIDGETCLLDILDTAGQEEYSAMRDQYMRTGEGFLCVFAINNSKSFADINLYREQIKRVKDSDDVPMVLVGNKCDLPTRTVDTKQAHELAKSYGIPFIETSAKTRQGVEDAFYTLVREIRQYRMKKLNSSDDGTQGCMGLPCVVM

Structure (SMILES) | HRAS/KRAS (ratio of KD value with respect to GDP-bound HRAS wild-type protein to KD value with respect to KRAS) [1] | NRAS/KRAS (ratio of KD value with respect to GDP-bound NRAS wild-type protein to KD value with respect to KRAS) [2] | HRAS/KRAS (ratio of KD value for HRAS to KD value for KRAS) [1] | NRAS/KRAS (ratio of KD value for NRAS to KD value for KRAS) [2]
CCC(CC)[C@H]1C(=O)N(C)[C@H](C(=O)N(C)C)CC(=O)N(C)[C@@H](COC)C(=O)N[C@@H]([C@@H](C)CC)C(=O)N(C)CC(=O)N(C)[C@H]2C/C=C\CCN(C2=O)[C@@H](Cc2ccc(C)cc2)C(=O)N(C)CC(=O)N[C@@H](CCc2cc(F)c(C(F)(F)F)c(F)c2)C(=O)N2CCCC[C@H]2C(=O)NC2(CC(C)(C)C2)C(=O)N1C [PP2922] | A (a compound having 10 or more and less than 20 is denoted as A) | AA (a compound having 20 or more is denoted as AA) |  | 
CCC(CC)[C@H]1C(=O)N(C)[C@H](C(=O)N(C)C)CC(=O)N(C)[C@@H](COC)C(=O)N[C@@H]([C@@H](C)CC)C(=O)N(C)CC(=O)N(C)[C@H]2C/C=C\CCN(C2=O)[C@@H](Cc2ccc(C)cc2)C(=O)N(C)CC(=O)N[C@@H](CCc2ccc(C(F)(F)F)c(Cl)c2)C(=O)N2CCCC[C@H]2C(=O)NC2(CC(C)(C)C2)C(=O)N1C [PP2931] | A (a compound having 10 or more and less than 20 is denoted as A) | A (a compound having 10 or more and less than 20 is denoted as A) |  | 
CCC(CC)[C@H]1C(=O)N(C)[C@H](C(=O)N(C)C)CC(=O)N(C)[C@@H](COC)C(=O)N[C@@H]([C@@H](C)CC)C(=O)N(C)CC(=O)N(C)[C@H]2C/C=C\CCN(C2=O)[C@@H](Cc2ccc(C)cc2)C(=O)N(C)CC(=O)N[C@@H](CCc2ccc(C(F)(F)F)c(OC)c2)C(=O)N2CCCC[C@H]2C(=O)NC2(CC(C)(C)C2)C(=O)N1C [PP2937] | A (a compound having 10 or more and less than 20 is denoted as A) | A (a compound having 10 or more and less than 20 is denoted as A) |  | 
CCC(CC)[C@H]1C(=O)N(C)[C@H](C(=O)N(C)C)CC(=O)N(C)[C@@H](COC)C(=O)N[C@@H]([C@@H](C)CC)C(=O)N(C)CC(=O)N(C)[C@H]2C/C=C\CCN(C2=O)[C@@H](Cc2ccc(C)cc2)C(=O)N(C)CC(=O)N[C@@H](CCc2ccc(C(F)(F)F)c(OC)c2)C(=O)N2CCOC[C@H]2C(=O)NC2(CC(C)(C)C2)C(=O)N1C [PP2938] | A (a compound having 10 or more and less than 20 is denoted as A) | AA (a compound having 20 or more is denoted as AA) |  | 
CCC[C@H]1C(=O)N[C@@H]([C@@H](C)CC)C(=O)N(C)CC(=O)N(C)[C@H]2C/C=C\CCN(C2=O)[C@@H](Cc2ccc(C)cc2)C(=O)N(C)CC(=O)N[C@@H](CCc2cc(Cl)c3sccc3c2)C(=O)N2C[C@H](OCC)C[C@H]2C(=O)NC2(CC(C)(C)C2)C(=O)N(C)[C@@H](C2CCCC2)C(=O)N(C)[C@H](C(=O)N(C)C)CC(=O)N1C [PP2947] | B (a compound having 3 or more and less than 10 is denoted as B) | B (a compound having 3 or more and less than 10 is denoted as B) |  | 
CCC[C@H]1C(=O)N[C@@H]([C@@H](C)CC)C(=O)N(C)CC(=O)N(C)[C@H]2C/C=C\CCN(C2=O)[C@@H](Cc2ccc(C)cc2)C(=O)N(C)CC(=O)N[C@@H](CCc2cc(Cl)c3c(ccn3C)c2)C(=O)N2C[C@H](OCC)C[C@H]2C(=O)NC2(CC(C)(C)C2)C(=O)N(C)[C@@H](C2CCCC2)C(=O)N(C)[C@H](C(=O)N(C)C)CC(=O)N1C [PP2951] | A (a compound having 10 or more and less than 20 is denoted as A) | A (a compound having 10 or more and less than 20 is denoted as A) |  | 
CCC(CC)[C@H]1C(=O)N(C)[C@H](C(=O)N(C)C)CC(=O)N(C)[C@@H](COC)C(=O)N[C@@H]([C@@H](C)CC)C(=O)N(C)CC(=O)N(C)[C@H]2C/C=C\CCN(C2=O)[C@@H](Cc2ccc(C)cc2)C(=O)N(C)CC(=O)N[C@@H](CCc2cc(F)c(C(F)(F)F)c(F)c2)C(=O)N2CCCCC[C@H]2C(=O)NC2(CC(C)(C)C2)C(=O)N1C [PP2960] | A (a compound having 10 or more and less than 20 is denoted as A) | A (a compound having 10 or more and less than 20 is denoted as A) |  | 
CCC(CC)[C@H]1C(=O)N(C)[C@H](C(=O)N(C)C)CC(=O)N(C)[C@@H](COC)C(=O)N[C@@H]([C@@H](C)CC)C(=O)N(C)CC(=O)N(C)[C@H]2C/C=C\CCN(C2=O)[C@@H](Cc2ccc(C)cc2)C(=O)N(C)CC(=O)N[C@@H](CCc2ccc(C(F)(F)F)c(Cl)c2)C(=O)N2CCCCC[C@H]2C(=O)NC2(CC(C)(C)C2)C(=O)N1C [PP2966] | A (a compound having 10 or more and less than 20 is denoted as A) | A (a compound having 10 or more and less than 20 is denoted as A) |  | 
CCC(CC)[C@H]1C(=O)N(C)[C@H](C(=O)N(C)C)CC(=O)N(C)[C@@H](COC)C(=O)N[C@@H]([C@@H](C)CC)C(=O)N(C)CC(=O)N(C)[C@H]2C/C=C\CCN(C2=O)[C@@H](Cc2ccc(C)cc2)C(=O)N(C)CC(=O)N[C@@H](CCc2ccc(C(F)(F)F)c(Cl)c2)C(=O)N2CC3(CC3)C[C@H]2C(=O)NC2(CC(C)(C)C2)C(=O)N1C [PP2967] | A (a compound having 10 or more and less than 20 is denoted as A) | AA (a compound having 20 or more is denoted as AA) |  | 
CCC(CC)[C@H]1C(=O)N(C)[C@H](C(=O)N(C)C)CC(=O)N(C)[C@@H](COC)C(=O)N[C@@H]([C@@H](C)CC)C(=O)N(C)CC(=O)N(C)[C@H]2C/C=C\CCN(C2=O)[C@@H](Cc2ccc(C)cc2)C(=O)N(C)CC(=O)N[C@@H](CCc2ccc(C(F)(F)F)c(OC)c2)C(=O)N2CCCCC[C@H]2C(=O)NC2(CC(C)(C)C2)C(=O)N1C [PP2970] | A (a compound having 10 or more and less than 20 is denoted as A) | A (a compound having 10 or more and less than 20 is denoted as A) |  | 
CCC(CC)[C@H]1C(=O)N(C)[C@H](C(=O)N(C)C)CC(=O)N(C)[C@@H](COC)C(=O)N[C@@H]([C@@H](C)CC)C(=O)N(C)CC(=O)N(C)[C@H]2C/C=C\CCN(C2=O)[C@@H](Cc2ccc(C)cc2)C(=O)N(C)CC(=O)N[C@@H](CCc2ccc(Cl)c(Cl)c2)C(=O)N2CCCCC[C@H]2C(=O)NC2(CC(C)(C)C2)C(=O)N1C [PP2974] |  |  | A (a compound having 10 or more and less than 20 is denoted as A) | A (a compound having 10 or more and less than 20 is denoted as A)
C#CC[C@H]1C(=O)N[C@@H]([C@@H](C)CC)C(=O)N(C)CC(=O)N(C)[C@H]2C/C=C\CCN(C2=O)[C@@H](Cc2ccc(C)cc2)C(=O)N(C)CC(=O)N[C@@H](CCc2cc(F)c(C(F)(F)F)c(F)c2)C(=O)N2CC3(CC3)C[C@H]2C(=O)NC2(CC(C)(C)C2)C(=O)N(C)[C@@H](C2CCCC2)C(=O)N(C)[C@H](C(=O)N(C)C)CC(=O)N1C [PP2978] |  |  | A (a compound having 10 or more and less than 20 is denoted as A) | A (a compound having 10 or more and less than 20 is denoted as A)
CCC[C@H]1C(=O)N[C@@H]([C@@H](C)CC)C(=O)N(C)CC(=O)N(C)[C@H]2C/C=C\CCN(C2=O)[C@@H](Cc2ccc(C(F)(F)F)cc2)C(=O)N(C)CC(=O)N[C@@H](CCc2ccc(C(F)(F)F)c(Cl)c2)C(=O)N2CC3(CC3)C[C@H]2C(=O)NC2(CC(C)(C)C2)C(=O)N(C)[C@@H](CC(F)(F)F)C(=O)N(C)[C@H](C(=O)N(C)C)CC(=O)N1C [PP2985] |  |  | A (a compound having 10 or more and less than 20 is denoted as A) | AA (a compound having 20 or more is denoted as AA)
CCC[C@H]1C(=O)N[C@@H](C2CCCC2)C(=O)N(C)CC(=O)N(C)[C@H]2C/C=C\CCN(C2=O)[C@@H](Cc2ccc(C)cc2)C(=O)N(C)CC(=O)N[C@@H](CCc2cc(F)c(C(F)(F)F)c(F)c2)C(=O)N2C[C@H](OCC)C[C@H]2C(=O)NC2(CC(C)(C)C2)C(=O)N(C)[C@@H](C2CCCC2)C(=O)N(C)[C@H](C(=O)N(C)C)CC(=O)N1C [PP2988] |  |  | B (a compound having 3 or more and less than 10 is denoted as B) | B (a compound having 3 or more and less than 10 is denoted as B)
CCC[C@H]1C(=O)N[C@@H](C2CCCC2)C(=O)N(C)CC(=O)N(C)[C@H]2C/C=C\CCN(C2=O)[C@@H](Cc2ccc(C)cc2)C(=O)N(C)CC(=O)N[C@@H](CCc2ccc(C(F)(F)F)c(OC)c2)C(=O)N2CC3(CC3)C[C@H]2C(=O)NC2(CC(C)(C)C2)C(=O)N(C)[C@@H](C2CCCC2)C(=O)N(C)[C@H](C(=O)N(C)C)CC(=O)N1C [PP2994] |  |  | A (a compound having 10 or more and less than 20 is denoted as A) | AA (a compound having 20 or more is denoted as AA)
CCC[C@H]1C(=O)N[C@@H]([C@@H](C)CC)C(=O)N(C)CC(=O)N(C)[C@H]2C/C=C\CCN(C2=O)[C@@H](Cc2ccc(C)cc2)C(=O)N(C)CC(=O)N[C@@H](CCc2cc(F)c(C(F)(F)F)c(F)c2)C(=O)N2C[C@H](OCC)C[C@H]2C(=O)NC2(CC(C)(C)C2)C(=O)N(C)[C@@H](CC(C)C)C(=O)N(C)[C@H](C(=O)N(C)C)CC(=O)N1C [PP2995] |  |  | A (a compound having 10 or more and less than 20 is denoted as A) | A (a compound having 10 or more and less than 20 is denoted as A)
